# Assay results from paper PMC9315260, “Diarylamine-Guided Carboxamide Derivatives: Synthesis, Biological Evaluation, and Potential Mechanism of Action” (Frontiers in Chemistry, 2022).
# How the values were obtained:
# CDK2/A2 = CDK2/A2 (Homo sapiens, UniProt P24941); test: ADP-GLO kinase inhibitory assay, CDK2/A2; assay type: biochemical; settings: for inhibition of CDK2/A2, in words: at 1 μM
# Procedure: (§1) Based on the aforementioned results for the potential mechanism of action, the kinase inhibitory profile of compounds C6 and C11 were screened at two dose concentration of 10 and 1 µM over a panel of 15 kinases, and the kinase inhibitory activities are listed in supporting information (Supplementary Table S1).
# (§2) The kinase inhibitory profile of compounds C6 and C11 were screened at two dose concentration of 10 and 1 µM over a panel of 15 kinases, and each assay was repeated twice. All the inhibitory assays were carried out through kinase profiling services provided by HY Biotech (Chinese), in which ADP-GLO kinase assays were used.
# as §2, with “10 µM” for “10”
# AKT1 = AKT1 (Homo sapiens, UniProt P31749); test: ADP-GLO kinase inhibitory assay, AKT1; assay type: biochemical
# Chain of AKT1 (P31749 whole entry, species assumed): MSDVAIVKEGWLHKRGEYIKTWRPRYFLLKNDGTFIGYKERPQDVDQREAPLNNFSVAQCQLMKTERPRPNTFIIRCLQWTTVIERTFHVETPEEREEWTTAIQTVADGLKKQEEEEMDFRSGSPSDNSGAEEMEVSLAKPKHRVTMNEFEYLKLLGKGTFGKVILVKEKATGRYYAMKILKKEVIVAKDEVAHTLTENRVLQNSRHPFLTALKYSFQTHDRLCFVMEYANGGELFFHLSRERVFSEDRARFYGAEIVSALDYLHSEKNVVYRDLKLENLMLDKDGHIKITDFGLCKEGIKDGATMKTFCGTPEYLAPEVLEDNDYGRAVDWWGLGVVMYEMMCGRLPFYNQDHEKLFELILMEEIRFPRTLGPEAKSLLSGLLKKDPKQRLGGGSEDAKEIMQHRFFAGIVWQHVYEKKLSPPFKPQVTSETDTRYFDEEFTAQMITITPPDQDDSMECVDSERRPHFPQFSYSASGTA
# Procedure: as §1, §2
# as §2, with “10 µM” for “10”
# PLK1 = PLK1 (Homo sapiens, UniProt P53350); test: ADP-GLO kinase inhibitory assay, PLK1; assay type: biochemical
# Chain of PLK1 (P53350 whole entry, species assumed): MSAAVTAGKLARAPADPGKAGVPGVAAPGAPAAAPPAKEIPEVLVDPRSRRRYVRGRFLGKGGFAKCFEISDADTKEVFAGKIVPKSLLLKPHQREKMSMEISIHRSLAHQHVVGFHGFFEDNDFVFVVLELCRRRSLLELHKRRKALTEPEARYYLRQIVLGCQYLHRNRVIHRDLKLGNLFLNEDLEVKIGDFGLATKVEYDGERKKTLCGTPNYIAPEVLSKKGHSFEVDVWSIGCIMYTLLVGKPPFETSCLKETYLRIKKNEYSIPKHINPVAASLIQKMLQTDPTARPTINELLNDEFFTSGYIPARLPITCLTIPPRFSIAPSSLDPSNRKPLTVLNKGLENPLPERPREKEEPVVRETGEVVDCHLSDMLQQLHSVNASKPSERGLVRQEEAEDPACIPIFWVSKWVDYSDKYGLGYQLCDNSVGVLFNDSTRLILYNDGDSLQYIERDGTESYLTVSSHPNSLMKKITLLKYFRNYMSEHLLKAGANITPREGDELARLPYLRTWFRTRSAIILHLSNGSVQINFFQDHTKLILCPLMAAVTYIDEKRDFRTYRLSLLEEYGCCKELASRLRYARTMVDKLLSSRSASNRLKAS
# Procedure: as §1, §2
# as §2, with “10 µM” for “10”
# PIM1 = PIM1 (Homo sapiens, UniProt P11309); test: ADP-GLO kinase inhibitory assay, PIM1; assay type: biochemical
# Chain of PIM1 (P11309 whole entry, species assumed): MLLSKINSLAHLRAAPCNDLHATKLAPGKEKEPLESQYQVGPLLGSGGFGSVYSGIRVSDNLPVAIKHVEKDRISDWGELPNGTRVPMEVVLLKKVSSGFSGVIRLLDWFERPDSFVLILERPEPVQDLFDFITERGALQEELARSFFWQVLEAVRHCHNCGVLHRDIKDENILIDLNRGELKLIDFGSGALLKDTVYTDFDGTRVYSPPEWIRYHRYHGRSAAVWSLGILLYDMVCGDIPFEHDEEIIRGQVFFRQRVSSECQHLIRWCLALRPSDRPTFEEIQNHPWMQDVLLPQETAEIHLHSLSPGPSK
# Procedure: as §1, §2
# as §2, with “10 µM” for “10”
# AURORA = test: ADP-GLO kinase inhibitory assay, AURORA; assay type: biochemical
# Procedure: as §1, §2
# as §2, with “10 µM” for “10”
# RIPK3 = RIPK3 (Homo sapiens, UniProt Q9Y572); test: ADP-GLO kinase inhibitory assay, RIPK3; assay type: biochemical
# Chain of RIPK3 (Q9Y572 whole entry, species assumed): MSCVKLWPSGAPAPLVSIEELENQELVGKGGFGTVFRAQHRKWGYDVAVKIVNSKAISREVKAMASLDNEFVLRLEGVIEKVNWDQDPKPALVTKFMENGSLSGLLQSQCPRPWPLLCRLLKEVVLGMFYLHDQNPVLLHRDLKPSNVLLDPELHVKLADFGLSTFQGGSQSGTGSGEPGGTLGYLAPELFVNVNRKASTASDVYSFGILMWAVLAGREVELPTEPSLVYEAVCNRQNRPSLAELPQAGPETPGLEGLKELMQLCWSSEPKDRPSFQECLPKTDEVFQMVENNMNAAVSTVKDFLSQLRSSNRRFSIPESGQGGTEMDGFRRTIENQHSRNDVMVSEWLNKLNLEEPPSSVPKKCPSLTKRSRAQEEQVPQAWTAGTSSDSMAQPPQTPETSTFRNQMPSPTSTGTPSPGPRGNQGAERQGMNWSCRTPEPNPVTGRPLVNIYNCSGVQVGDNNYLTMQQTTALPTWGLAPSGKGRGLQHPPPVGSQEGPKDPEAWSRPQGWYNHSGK
# Procedure: as §1, §2
# as §2, with “10 µM” for “10”
# AKT3 = AKT3 (Homo sapiens, UniProt Q9Y243); test: ADP-GLO kinase inhibitory assay, AKT3; assay type: biochemical
# Chain of AKT3 (Q9Y243 whole entry, species assumed): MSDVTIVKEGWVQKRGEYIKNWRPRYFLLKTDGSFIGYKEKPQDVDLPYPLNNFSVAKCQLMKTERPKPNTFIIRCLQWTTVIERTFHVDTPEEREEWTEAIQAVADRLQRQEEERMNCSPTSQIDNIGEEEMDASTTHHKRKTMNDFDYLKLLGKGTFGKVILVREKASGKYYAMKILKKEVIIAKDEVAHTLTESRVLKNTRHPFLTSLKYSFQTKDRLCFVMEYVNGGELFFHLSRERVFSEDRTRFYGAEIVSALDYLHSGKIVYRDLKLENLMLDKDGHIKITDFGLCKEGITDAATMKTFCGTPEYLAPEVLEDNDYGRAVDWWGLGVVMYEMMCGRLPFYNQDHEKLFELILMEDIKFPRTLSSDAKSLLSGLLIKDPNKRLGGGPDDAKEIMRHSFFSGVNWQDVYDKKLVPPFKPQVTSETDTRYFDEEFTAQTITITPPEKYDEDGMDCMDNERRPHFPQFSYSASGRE
# Procedure: as §1, §2
# as §2, with “10 µM” for “10”
# PAK3 = PAK3 (Homo sapiens, UniProt O75914); test: ADP-GLO kinase inhibitory assay, PAK3; assay type: biochemical
# Chain of PAK3 (O75914 whole entry, species assumed): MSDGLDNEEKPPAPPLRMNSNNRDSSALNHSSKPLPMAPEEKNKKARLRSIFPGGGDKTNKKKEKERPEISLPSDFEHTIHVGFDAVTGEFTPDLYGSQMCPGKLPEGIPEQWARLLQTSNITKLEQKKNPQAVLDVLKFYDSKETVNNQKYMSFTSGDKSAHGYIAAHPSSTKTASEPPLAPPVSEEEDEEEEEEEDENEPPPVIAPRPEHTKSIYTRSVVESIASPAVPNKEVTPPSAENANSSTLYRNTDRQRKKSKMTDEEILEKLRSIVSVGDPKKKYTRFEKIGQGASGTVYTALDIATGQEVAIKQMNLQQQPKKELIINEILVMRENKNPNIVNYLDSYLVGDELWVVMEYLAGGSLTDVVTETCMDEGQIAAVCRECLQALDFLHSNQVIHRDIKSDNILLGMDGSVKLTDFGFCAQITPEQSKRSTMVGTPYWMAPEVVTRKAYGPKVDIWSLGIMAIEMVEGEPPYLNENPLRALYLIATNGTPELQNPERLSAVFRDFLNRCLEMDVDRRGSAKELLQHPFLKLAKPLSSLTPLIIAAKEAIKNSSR
# Procedure: as §1, §2
# as §2, with “10 µM” for “10”
# CDK1/A2 = CDK1/A2 (Homo sapiens, UniProt P06493); test: ADP-GLO kinase inhibitory assay, CDK1/A2; assay type: biochemical
# Procedure: as §1, §2
# as §2, with “10 µM” for “10”
# CHK1 = target: T1, CHK1 (Homo sapiens, UniProt O14757); test: ADP-GLO kinase inhibitory assay, CHK1; assay type: biochemical
# T1 sequence (O14757 1-476): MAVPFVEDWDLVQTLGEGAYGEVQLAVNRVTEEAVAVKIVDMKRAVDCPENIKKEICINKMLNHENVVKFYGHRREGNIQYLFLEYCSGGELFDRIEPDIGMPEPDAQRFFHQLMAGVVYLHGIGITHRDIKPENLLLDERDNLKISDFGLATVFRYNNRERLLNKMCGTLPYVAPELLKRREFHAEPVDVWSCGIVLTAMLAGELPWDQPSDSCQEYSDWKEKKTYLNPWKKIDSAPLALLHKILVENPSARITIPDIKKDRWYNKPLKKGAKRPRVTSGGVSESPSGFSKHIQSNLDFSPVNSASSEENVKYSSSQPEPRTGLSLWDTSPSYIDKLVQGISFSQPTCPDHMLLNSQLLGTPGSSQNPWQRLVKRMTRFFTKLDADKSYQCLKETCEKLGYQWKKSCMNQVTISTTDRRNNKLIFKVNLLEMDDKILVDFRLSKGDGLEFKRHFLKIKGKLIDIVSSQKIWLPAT
# Procedure: as §1, §2
# as §2, with “10 µM” for “10”
# A875 cells = test: LDH release (cellular necrosis); assay type: cell-based, human; settings: 24 h after treatment
# Procedure: From the preliminary analysis of apoptosis, the results encourage us to further investigate the type of cell death induced by the potential compounds (C6 and C11). As we know, the release of LDH is a typical characteristic feature of necrotic cell death, and so which was detected.
# A875 cells grown in 96-well plates were treated with serial dilutions of each tested compound for 24 h. The culture media were collected, and the concentrations of LDH were determined based on our previous research ([Huang et al., 2021]).
# A875 cells grown in 96-well plates were treated with serial dilutions of each tested compound for 24 h. The culture media were collected, and the concentrations of LDH were determined with an LDH assay kit according to the manufacturer’s instructions (Abcam).
# MAPK1 = MAPK1 (Homo sapiens, UniProt P28482); test: ADP-GLO kinase inhibitory assay, MAPK1; assay type: biochemical; settings: for inhibition of MAPK1, in words: at 1 μM
# Chain of MAPK1 (P28482 whole entry, species assumed): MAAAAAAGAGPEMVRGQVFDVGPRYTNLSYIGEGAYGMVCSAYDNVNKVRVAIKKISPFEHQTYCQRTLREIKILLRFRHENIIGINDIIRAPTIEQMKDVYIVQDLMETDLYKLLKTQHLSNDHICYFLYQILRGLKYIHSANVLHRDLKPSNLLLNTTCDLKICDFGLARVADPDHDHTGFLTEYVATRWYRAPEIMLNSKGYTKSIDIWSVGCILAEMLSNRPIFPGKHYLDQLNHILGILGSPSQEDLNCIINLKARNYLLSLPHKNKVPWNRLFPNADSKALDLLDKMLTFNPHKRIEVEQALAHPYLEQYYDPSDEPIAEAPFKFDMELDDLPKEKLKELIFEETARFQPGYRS
# Procedure: as §1, §2
# as §2, with “10 µM” for “10”
# DAPK1 = DAPK1 (Homo sapiens, UniProt P53355); test: ADP-GLO kinase inhibitory assay, DAPK1; assay type: biochemical
# Chain of DAPK1 (P53355 whole entry, species assumed): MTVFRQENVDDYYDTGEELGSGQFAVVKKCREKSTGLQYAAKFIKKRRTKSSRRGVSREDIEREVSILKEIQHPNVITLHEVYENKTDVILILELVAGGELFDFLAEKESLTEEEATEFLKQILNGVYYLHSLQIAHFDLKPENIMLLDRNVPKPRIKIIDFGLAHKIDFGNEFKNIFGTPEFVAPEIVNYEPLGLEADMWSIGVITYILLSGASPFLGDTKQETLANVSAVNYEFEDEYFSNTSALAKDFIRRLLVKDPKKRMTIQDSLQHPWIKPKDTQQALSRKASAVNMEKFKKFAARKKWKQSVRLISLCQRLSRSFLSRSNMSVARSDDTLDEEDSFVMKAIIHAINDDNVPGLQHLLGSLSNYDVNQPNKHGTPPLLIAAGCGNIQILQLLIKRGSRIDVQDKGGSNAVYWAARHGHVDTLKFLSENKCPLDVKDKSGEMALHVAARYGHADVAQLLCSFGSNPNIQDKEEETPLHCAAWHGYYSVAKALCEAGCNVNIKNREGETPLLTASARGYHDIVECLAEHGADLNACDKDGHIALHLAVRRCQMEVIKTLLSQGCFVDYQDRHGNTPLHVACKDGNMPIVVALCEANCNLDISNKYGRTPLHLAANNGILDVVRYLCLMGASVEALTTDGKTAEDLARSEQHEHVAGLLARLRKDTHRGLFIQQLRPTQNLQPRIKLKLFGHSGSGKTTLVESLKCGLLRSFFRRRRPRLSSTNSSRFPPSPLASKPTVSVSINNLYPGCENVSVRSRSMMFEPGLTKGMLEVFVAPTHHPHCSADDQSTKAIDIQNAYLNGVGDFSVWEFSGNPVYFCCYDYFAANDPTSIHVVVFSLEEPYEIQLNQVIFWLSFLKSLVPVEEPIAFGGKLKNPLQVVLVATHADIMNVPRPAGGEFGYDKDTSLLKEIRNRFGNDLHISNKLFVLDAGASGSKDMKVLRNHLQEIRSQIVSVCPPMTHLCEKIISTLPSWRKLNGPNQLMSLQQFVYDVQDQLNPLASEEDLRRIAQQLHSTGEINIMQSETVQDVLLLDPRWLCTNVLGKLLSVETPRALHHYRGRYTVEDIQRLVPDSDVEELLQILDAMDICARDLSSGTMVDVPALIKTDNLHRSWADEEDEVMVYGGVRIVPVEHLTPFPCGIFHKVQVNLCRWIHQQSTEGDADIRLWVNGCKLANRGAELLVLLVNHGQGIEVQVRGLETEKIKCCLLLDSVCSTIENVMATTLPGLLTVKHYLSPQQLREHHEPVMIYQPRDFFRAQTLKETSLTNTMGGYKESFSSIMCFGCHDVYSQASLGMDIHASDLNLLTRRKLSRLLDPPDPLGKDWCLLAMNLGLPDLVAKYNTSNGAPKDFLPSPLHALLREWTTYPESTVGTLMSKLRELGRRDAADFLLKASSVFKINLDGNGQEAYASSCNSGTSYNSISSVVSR
# Procedure: as §1, §2
# as §2, with “10 µM” for “10”
# [1] = tested on: A875 (human melanoma cell line); test: MTT in vitro cytotoxicity assay, A875; assay type: cell-based; settings: for IC50: A875, Table 3, MTT, mean ± S.D.; for inhibition at 100 µM: A875, at 100 µM, read-out: Cell growth inhibition (%) A875
# Procedure: The lead molecules A2 and all newly prepared diarylamine derivatives B1-13 and C1-11 were evaluated for their in vitro cytotoxic effects against SGC-7901, A875, HepG2 and MARC145 cell lines by the classical MTT [3-(4,5-dimethylthiazol-2-yl)-2,5-diphenyl tetrazolium bromide] assay ([Alley et al., 1988]; [Ke et al., 2012]; [Shi et al., 2012]; [Yu et al., 2015]; [Ke et al., 2019]; [Xu et al., 2019]; [Huang et al., 2021]) using 5-FU (5-Fluorouracil) as a control.
# The cytotoxicity of target compounds was determined with MTT assay ([Alley et al., 1988]; [Ke et al., 2012]; [Shi et al., 2012]; [Yu et al., 2015]; [Ke et al., 2019]; [Xu et al., 2019]; [Huang et al., 2021]). SGC-7901, A875, HepG2 and MARC145 cell lines were obtained from Hubei Biopesticide Engineering Research Centre. All data of the experiment were analyzed with SPSS software, and all assay were performed in triplicate on three independent experiments, and measurement data were expressed as the mean ± S.D.
# The in vitro cytotoxicity of the synthesized compounds against different cell lines (SGC-7901, A875, HepG2 and MARC145) was measured with MTT assay. All the data of the experiment were analyzed with SPSS software, and the 50% inhibitory concentrations (IC50) of each compound for the different cell lines were determined. A control was run for each test, and all assays were performed in triplicate on three independent experiments, and measurement data were expressed as the mean ± S.D.
Compound,inhibition at 1 µM (CDK2/A2) [%],inhibition at 10 µM (CDK2/A2) [%],"inhibition of CDK2/A2, in words (CDK2/A2)",inhibition at 1 µM (AKT1) [%],inhibition at 10 µM (AKT1) [%],inhibition at 1 µM (PLK1) [%],inhibition at 10 µM (PLK1) [%],inhibition at 1 µM (PIM1) [%],inhibition at 10 µM (PIM1) [%],Inhibition activity (%) AURORA (AURORA; 1 µM) [%],Inhibition activity (%) AURORA (AURORA; 10 µM) [%],inhibition at 1 µM (RIPK3) [%],inhibition at 10 µM (RIPK3) [%],inhibition at 1 µM (AKT3) [%],inhibition at 10 µM (AKT3) [%],inhibition at 1 µM (PAK3) [%],inhibition at 10 µM (PAK3) [%],inhibition at 1 µM (CDK1/A2) [%],inhibition at 10 µM (CDK1/A2) [%],inhibition at 1 µM (CHK1) [%],further results
"O=C(Nc1cccc(C(F)(F)F)c1)c1cccnc1Nc1cccc(C(F)(F)F)c1 [C6, N-(3-(Trifluoromethyl)phenyl)-2-((3-(trifluoromethyl)phenyl)amino)nicotinamide]",23.4,15,certain inhibitions,10.4,-6.77,5.21,-0.95,12.8,15.8,4.35,7.74,-1.37,16.8,16.1,-2.65,10.1,1.34,1.55,-3.82,10.2,"inhibition at 10 µM (CHK1): -0.18%; release of LDH, in words (A875 cells): significantly increased; inhibition at 1 µM (MAPK1): 28.8%; inhibition at 10 µM (MAPK1): 17.6%; inhibition of MAPK1, in words (MAPK1): certain inhibitions; inhibition at 1 µM (DAPK1): 8.48%; inhibition at 10 µM (DAPK1): -7.18%; IC50 [1]: 12.8 ± 1.99 µM; inhibition at 100 µM [1]: 91.5 ± 2.9%"
"O=C(Nc1ccc(Cl)nc1)c1cccnc1Nc1cccc(C(F)(F)F)c1 [C11, N-(6-Chloropyridin-3-yl)-2-((3-(trifluoromethyl)phenyl)amino)nicotinamide]",26.8,16.7,some inhibitions,13.3,-5.21,7.32,2.02,23.1,10.3,9.65,12.58,2.34,10.4,20.1,-0.49,11.8,8.14,38.2,-7.23,19.5,"inhibition of CDK1/A2, in words (CDK1/A2; at 1 μM): some inhibitions; inhibition at 10 µM (CHK1): 3.66%; release of LDH, in words (A875 cells): significantly increased; inhibition at 1 µM (MAPK1): 24.4%; inhibition at 10 µM (MAPK1): 7.96%; inhibition of MAPK1, in words (MAPK1): some inhibitions; inhibition at 1 µM (DAPK1): -2.25%; inhibition at 10 µM (DAPK1): 6.49%; IC50 [1]: 12.3 ± 4.16 µM; inhibition at 100 µM [1]: 90.5 ± 3.7%"
